“Also recorded” adds a separate entry of the source.
Key:
[1] = Solubility of vorolanib in water; assay type: physicochemical
Experimental: Vorolanib has the chemical designation (S,Z)—N-(1-(Dimethylcarbamoyl) pyrrolidin-3-yl)-5-((5-fluoro-2-oxoindolin-3-ylidene)methyl)-2,4-dimethyl-1H-pyrrole-3-carboxamide. Synonyms include the term “X-82”. The molecular formula is C23H26FN5O3. The solubility of vorolanib in water is less than 10 μg/mL.

[2] = Plasma and ocular tissue levels after oral vorolanib in the retinal detachment study; assay type: in vivo, C57Bl/6 mice; conditions: 40 mg/kg oral once a day
Experimental: (§1) An 18-day study was conducted in age-matched and experimentally naive C57Bl/6 mice. Prior to experiments, the mice were randomly distributed into two separate study arms, and identification numbers were assigned to individual mice. Prior to dosing initiation, baseline experiments were conducted to measure visual acuity and contrast vision by optokinetic tracking (OKT), and to measure retinal and outer nuclear layer (ONL) thickness in images obtained by optical coherence tomography (OCT). On Day 1, and continuing until Day 18, the mice received once a day oral administration of vehicle (Arm 1), or Vorolanib at 40 mg/kg (Arm 2). On Day 2, bilateral subretinal injection of sodium hyaluronate was performed to induce retinal detachment. On Day 16, visual acuity and contrast vision thresholds were measured, and on Day 17, OCT was performed to measure retinal and ONL thickness. On Day 18, terminal collections were performed at either 30 minutes, or 4 hours, post-administration, with whole blood collected and processed to plasma, left eyes collected and fixed for histology, and right eyes collected and dissected to yield cornea, lens, retinal pigment epithelium (RPE)/choroid/sclera, and retina, separately.
(§2) Day 18 at 30 min±5 min following oral administration of vehicle or test agent: Terminal plasma collection; Enucleation of eyes with left eyes fixed in 10% NBF and right eyes dissected to yield cornea, lens, RPE/choroid/sclera, and retina, with tissue snap frozen in liquid N2 with tube and tissue weights recorded (n=4 mice/arm).
as §2, with “4 hr±15” for “30 min±5”
Oral gavage was performed on conscious mice by trained personnel; no anesthesia was required. […]

[3] = tested on: sodium Hyaluronate-induced retinal detachment; experiment: Sodium hyaluronate-induced retinal detachment model: OKT and OCT; assay type: in vivo, C57Bl/6 mice
Experimental: as §1
Mouse eyes were dilated and the animals were anesthetized according to standard operating procedures. The mouse was placed on a regulated heating pad, and the posterior pole was visualized under magnification. A 12.7 mm 30-gauge insulin syringe was used to puncture the cornea just above the corneal limbus, avoiding any contact with the sclera and lens. The transvitreal subretinal injections were performed using a 10 μL Hamilton syringe with a 33-gauge blunt needle inserted through the corneal puncture across the vitreous, with the shaft aimed at the back of the eyecup, avoiding any trauma to the lens or iris. A total volume of 1 μL was delivered.
OKT is performed using an OptoMotry designed for rodent use (Cerebral Mechanics Inc.). In this non-invasive assessment, mice are placed onto a platform surrounded by 4 LCD screens which reside within a light-protected box. Visual stimuli are then presented to the mouse via the LCD screens and a masked observer visualizes and scores optokinetic tracking reflexes from a digital camcorder which is mounted on the top of the box. The monitors display continuous vertical sine wave gratings rotating across the monitors at 12 degrees/s which appear to the animal as a virtual three-dimensional rotating […]. The rotation of the virtual cylinder is constantly centered at the animal's viewing position to ensure a consistent viewing distance. Tracking movements are identified as slow, steady head movements in the direction of the rotating grating. For measurements of spatial frequency threshold, mice were tested at a range of spatial frequencies from 0.064 to 0.464 cycles/degree. […] All measurements of contrast threshold were performed at a spatial frequency threshold of 0.064 cycles/degree. The contrast threshold is calculated as a reciprocal of the Michelson contrast from the screen's luminance (maximum−minimum)/(maximum+minimum). The reciprocal of the contrast threshold is plotted.
Animals were anesthetized and eyes were dilated according to standard procedures. Following sedation and dilation, animals were secured on a platform and presented to a Micron
IV OCT module (Phoenix Research Inc.) for imaging. The total retina thickness and outer nuclear layer thickness were measured from vertical and horizontal scans within each eye, and the data was plotted as the average retinal thickness across the scans.
Graphs were generated using GraphPad Prism (v. 9.4.0). […]

[4] = tested on: Swine (Mini-pig) Model of Laser-Induced Choroidal Neovascularization (CNV); experiment: Laser-induced choroidal neovascularization model, fluorescein angiography (CTLF); assay type: in vivo; conditions: Day 0
Experimental: Safety and efficacy of a vorolanib insert were evaluated in a Swine (Mini-pig) Model of Laser-Induced Choroidal Neovascularization (CNV). The primary objective of this study was to evaluate the long-term safety and inhibition of vascular permeability and neovascularization in a laser-induced model of choroidal neovascularization (CNV) using a vorolanib insert in swine.
On the day of lasering (Groups 1-4) animals were treated with an 810 nm diode laser delivered through an indirect ophthalmoscope. Approximately 6 single laser spots were placed between retinal veins. Both eyes underwent laser treatment according to the schedule in the table above.
On the day of intravitreal injections animals were anesthetized and the eyes were aseptically prepared. […] Animals were allowed to recover normally from the procedure. The pigs were given a topical drop of antibiotic ophthalmic solution 4-6 hours later, and then BID for 2 additional days with at least 6 hours between doses. Animals were dosed on either Day 0 immediately following laser CNV induction or 7 days prior to laser CNV induction according to the schedule in the table above.
Flourescein Angiography was done in both eyes in anesthetized animals at the timepoints as indicated in the experimental design table.

[5] = 40 mg/kg oral once a day, baseline to Day 17, OCT

Compound | solubility [1] | presence in plasma ([2]; 18 consecutive days) | tissue distribution ([2]; 18 days) | detection in ocular tissues ([2]; up to 4 hours following the terminal dose) | overall effect in retinal detachment model ([3]; 40 mg/kg once a day for 18 consecutive days, compared to vehicle) | mean spatial frequency threshold (SFT) ([3]; 40 mg/kg oral once a day, Day 16) | contrast thresholds compared to vehicle ([3]; 40 mg/kg oral once a day, Day 16, P=0.0009) | loss of contrast vision, baseline to Day 16 ([3]; 40 mg/kg oral once a day, OKT) | loss of visual acuity, baseline to Day 16 ([3]; 40 mg/kg oral once a day, OKT) | loss of ONL thickness in horizontal scans [3, 5] | loss of ONL thickness in vertical scans [3, 5] | total retinal thickness across the treatment arms ([3]; 40 mg/kg oral vs vehicle, OCT) | difference in mean SFT versus vehicle ([3]; Day 16) | mean retinal thickness across vertical and horizontal scans ([3]; across both arms and timepoints) | efficacy in laser CNV model ([4]; 2 mg IVT) | Corrected Total Lesion Fluorescence (CTLF) value, change from Day 7 to Day 28 ([4]; Group 1: 2 mg, 50 μL/eye IVT)
Cc1[nH]c(/C=C2\C(=O)Nc3ccc(F)cc32)c(C)c1C(=O)N[C@H]1CCN(C(=O)N(C)C)C1 [vorolanib, (S,Z)—N-(1-(Dimethylcarbamoyl)pyrrolidin-3-yl)-5-((5-fluoro-2-oxoindolin-3-ylidene)methyl)-2,4-dimethyl-1H-pyrrole-3-carboxamide] | < 10 µg/mL | present in the plasma up to 4 hours | primarily in RPE/Choroid/Sclera tissue at levels that exceed plasma concentrations | within detectable range in all ocular tissues tested, except lens tissue | significant neuroprotective effect | 0.306 cycles/degree | significantly higher; also recorded: statistically significant improvement | 41% | 23% | no loss | 1% | no statistically significant differences | not statistically significant | 222-229 μm | – | –
aflibercept: VEGF inhibitor (Regeneron), intravitreal injection, positive control | – | – | – | – | – | – | – | – | – | – | – | – | – | – | normal amounts of efficacy | largest reduction
